Each structure is given as a SMILES string.

The target of the assay is ATX (human His-tagged) (Homo sapiens (Human), UniProt Q13822). Kind of assay: Human ATX Enzyme Inhibition Assay (fluorescence quenching, MR121 substrate). Type of assay: biochemical. The settings on record: 30 nM ATX, 1 μM MR121 substrate, 30° C. On the procedure: Autotaxin (ATX-ENPP2) cloning: cDNA was prepared from commercial human hematopoietic cells total RNA and used as template in overlapping PCR to generate a full length human ENPP2 ORF with or without a 3′-6×His tag. These full length inserts were cloned into the pcDNA3.1V5-His TOPO (Invitrogen) vector. The DNA sequences of several single clones were verified. The DNA from a correct full length clone was used to transfect Hek293 cells for verification of protein expression. The sequence of the encoded ENPP2 conforms to Swissprot entry Q13822, with or without the additional C-terminal 6×His tag. ATX Fermentation: Recombinant protein was produced by large-scale transient transfection in 20 L controlled stirred tank bioreactors (Sartorius). During cell growth and transfection, temperature, stirrer speed, pH and dissolved oxygen concentration were maintained at 37° C., 120 rpm, 7.1 and 30% DO, respectively. […] Expression was analyzed by Western Blot, enzymatic assay and/or analytical IMAC chromatography. […] Human ATX Enzyme Inhibition Assay ATX inhibition was measured by a fluorescence quenching assay using a specifically labeled substrate analogue (MR121 substrate). […]

Usually IC50 stands for the concentration that gives 50% inhibition. With `O=C(c1cnc(OCC2CCOCC2)c(C2CC2)c1)N1CCc2nc(C(=O)N3CCc4[nH]nnc4C3)sc2C1` [Example 1.03], the IC50 worked out at 5 nM.

The values are drawn from patent publication US11673888B2, “Bicyclic compounds as ATX inhibitors” (Hoffmann-La Roche Inc., priority 2017, dated 2023).
